Test in all cases: NCI-60 cell line screen, 48 h
The subject of test [1] is HL-60(TB) leukemia.
Test [2] concerns HS 578T breast.
Test [3] has as its system HT29 colon.
Test [4] deals with IGROV1 ovarian.
Test [5] concerns K-562 leukemia.
The test system of test [6] is MDA-MB-435.
The test system of test [7] is OVCAR-4 ovarian.
The subject of test [8] is RPMI-8226 leukemia.
For test [9], the system named is SF-295 CNS.
Test [10] relates to UACC-62 melanoma.

SMILES strings stand for the structures.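 The compound was tested at five concentrations on cells cultured in 96-well plates, with a 48-hour exposure period. GI50 = concentration required for 50% inhibition of growth. At the TGI there is no net growth.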

On to `OC(c1cc(-c2ccccc2)nc2ccc(Cl)cc12)C1CCCCN1` (centres undefined), for which the GI50 in [1] is 2.26 µM; in [2] it was 3.37 µM; in test [3], 2.96 µM; in test [4], 1.9 µM; in [5], 2.54 µM; in test [6] it was 1.73 µM. For the same compound, the GI50 in [7] is 3.24 µM; in test [8], 2.25 µM; in test [9], 1.9 µM; in [10], 1.88 µM. Further, the TGI in test [1] worked out at 4.82 µM; in test [2] it was 11.7 µM; in test [3], 6.57 µM; in [4], 4.19 µM; in test [5] it was 7.01 µM; in test [6], 3.29 µM. Moreover, the TGI in [7] is 8.96 µM; in test [8], 5.49 µM; in test [9] it was 3.55 µM; in test [10] it was 3.68 µM.

For `CCOC(=O)c1c2c(n3ccccc13)C(=O)c1ccccc1C2=O`, the TGI in test [1], in [2], in test [3], in test [4], in [5] and in [6] was over 100 µM each time. For the same compound, the TGI in test [7], in test [8], in test [9] and in test [10] was over 100 µM each time.

Regarding `O=C(/C=C/c1ccccc1)c1cc(Br)ccc1O`, the TGI in test [1] was determined as 25.7 µM; in test [2] it was 59.3 µM; in test [3] it was 31 µM; in [4] it was 25 µM; in test [5] it was 43.1 µM; in [6] it was 32.6 µM. For the same compound, the TGI in [7] is 30.3 µM; in [8], 34 µM; in test [9], 31.5 µM; in [10] it was 27.4 µM.

Turning to `COC(=O)[C@H](C[C@H](Cc1ccccc1)NC(=O)c1csc([C@@H](C[C@H](C(C)C)N(C)C(=O)[C@@H](NC(=O)[C@H]2CCCCN2C)C(C)C)OC(C)=O)n1)NC(=O)OCc1ccccc1`, the GI50 in test [1] was under 0.0009 µM; in test [2], under 0.0009 µM; in [3], under 0.0009 µM; in [4], 0.00119 µM; in test [5], under 0.0009 µM; in test [6], under 0.0009 µM. Besides, the GI50 was 0.0124 µM in [7], under 0.0009 µM in test [8], 0.00128 µM in test [9] and under 0.0009 µM in test [10]. Further, the TGI in test [1] was 0.00178 µM; in [2] it was over 4.93 µM; in test [4], over 4.04 µM; in test [5], over 3.46 µM; in test [6], under 0.0009 µM; in test [7], over 9 µM. In addition, the figures for the TGI in [8], in test [9] and in [10] were 2.34 µM, over 9 µM and over 9 µM, respectively.

As for `CC[C@@H](C(=O)O)C1CC[C@H](C)C([C@@H](C)[C@H](O)[C@H](C)C(=O)[C@H](CC)C2O[C@]3(C=C[C@@H](O)[C@]4(CC[C@@](C)(C5CC[C@](O)(CC)[C@H](C)O5)O4)O3)[C@H](C)C[C@@H]2C)O1` (some centres undefined), the GI50 in [1] is 0.0406 µM; in test [2], 0.0767 µM; in [3], 0.293 µM; in test [4], 2.28 µM; in [5] it was 0.306 µM; in test [6], 1.04 µM. Moreover, the GI50 in [7] was 0.657 µM; in test [8] it was 0.153 µM; in [9] it was 0.261 µM; in test [10], 0.767 µM. For the same compound, the TGI was found to be 0.347 µM in [1]; 12.4 µM in [2]; 25.7 µM in test [3]; 64.8 µM in test [4]; 15.6 µM in test [5]; 2.77 µM in test [6]. The TGI came to 33.7 µM in [7], 3.48 µM in [8], 11.1 µM in [9] and 2.15 µM in [10].

Turning to `CCc1nccc2c1nc(-c1nonc1N)n2CC`, the GI50 in test [1] was over 25 µM; in [2], over 19.7 µM; in test [3] it was over 25 µM; in test [4], 16.8 µM; in test [5] it was over 25 µM; in [6], over 25 µM. The GI50 is over 25 µM in test [7], over 25 µM in [8], over 7.78 µM in [9] and over 25 µM in test [10]. Also, the TGI in [1], in test [2], in [3], in test [4], in test [5] and in [6] was over 25 µM throughout. Also, the TGI in test [7], in test [8], in test [9] and in test [10] was over 25 µM each time.

`O=C(NCCCCCCNC(=O)n1cc(F)c(=O)[nH]c1=O)NCCCOCCOCCOCCOCCOCCOCCOCCOCCOCCOCCOCCOCCOCCOCCOCCOCCOCCOCCOCCOCCOCCCNC(=O)C(O)C(O)C(O)C(O)CO` (centres undefined): the TGI in test [1], in test [2], in [3], in [4], in test [5] and in test [6] was over 100 µM throughout. Besides, the TGI in test [7], in test [8], in test [9] and in test [10] was over 100 µM each time.

Turning to `Oc1cccc2ccc(N/N=C/c3cc(CN4CCCCC4)c(O)c4ncccc34)nc12`, the GI50 was 0.0345 µM in test [1]; 0.147 µM in [2]; 0.324 µM in [3]; 0.173 µM in test [4]; 0.0383 µM in test [5]; 0.0444 µM in test [6]. The GI50 is 0.162 µM in test [7], 0.0371 µM in test [8], 0.0686 µM in test [9] and 0.0459 µM in [10]. Moreover, the TGI in [1] is 1.29 µM; in test [2], 29.4 µM; in test [3], 1.46 µM; in [4], 18.4 µM; in [5], 11.1 µM; in test [6], 1.73 µM. Further, the TGI in [7] came to 1.6 µM; in test [8] it was 9.29 µM; in test [9], 3.07 µM; in test [10], 4.9 µM.

For the compound `Nc1ccccc1C#C/C=C\C#Cc1cccs1`, the GI50 was 0.696 µM in test [1]; 15.2 µM in [2]; 20.3 µM in test [3]; 6.36 µM in test [4]; 3.53 µM in test [5]; 2.81 µM in [6]. Besides, the GI50 in test [7] is 16.2 µM; in test [8], 1.25 µM; in test [9], 11.3 µM; in test [10], 5.96 µM. Further, the TGI in [1] was 12.3 µM; in test [2], 41.8 µM; in [3] it was 57.3 µM; in test [4], over 39.6 µM; in test [5] it was over 100 µM; in [6] it was 12.2 µM. In addition, the TGI in test [7] is over 50.7 µM; in test [8], over 35.7 µM; in test [9] it was 46.1 µM; in test [10] it was 19.4 µM.

Turning to `COc1ccc(/C(C#N)=C/c2ccccc2OC)cc1`, the GI50 was 5.25 µM in test [1]; 14.3 µM in test [2]; 3.95 µM in test [3]; 8.82 µM in test [4]; 4.11 µM in [5]; 1.95 µM in test [6]. The GI50 in test [7] was 32.5 µM; in test [8], 9.02 µM; in test [9] it was 29.1 µM; in test [10], 7.36 µM. Further, the TGI in test [1] was over 100 µM; in test [2], over 100 µM; in test [3] it was 18.3 µM; in test [4], over 100 µM; in [5], over 100 µM; in test [6], 5.72 µM. In addition, the TGI in test [7] is over 100 µM; in test [8] it was 46.2 µM; in test [9] it was over 100 µM; in [10], over 100 µM.

As for `CCOC(=O)c1cc(NS(=O)(=O)c2ccccc2)cc(C(=O)OCC)c1`, the GI50 in test [1], in test [2], in [3], in test [4], in test [5] and in test [6] was over 100 µM throughout. Also, the GI50 in test [7], in test [8], in test [9] and in test [10] was over 100 µM throughout. Also, the TGI in test [1], in test [2], in test [3], in test [4], in test [5] and in test [6] was over 100 µM in each case. Further, the TGI in [7], in test [8], in test [9] and in test [10] was over 100 µM each time.

As to `O=C1c2cccnc2C(=O)c2nc3cc(N4CCN(C5CC5)CC4)ccc3nc21`, the GI50 was 2.37 µM in test [1]; 0.37 µM in test [2]; 0.658 µM in test [3]; 0.808 µM in test [4]; 0.522 µM in [5]; 0.169 µM in [6]. In addition, the GI50 in test [7] was 1.27 µM; in test [8] it was 2.4 µM; in [9], 0.41 µM; in test [10], 0.222 µM. Besides, the TGI is 7.29 µM in test [1]; 3.18 µM in test [2]; 4.96 µM in test [3]; 3.01 µM in test [4]; over 20.7 µM in test [5]; 0.328 µM in test [6]. Further, the TGI in [7] was found to be 2.55 µM; in [8], 8.63 µM; in [9], 1.59 µM; in test [10], 0.631 µM.

For the compound `C=CCOc1cccc(/C=C2\SC(=Nc3ccc(O)cc3)NC2=O)c1`, the GI50 was 0.241 µM in [1]; 0.414 µM in [2]; 3.54 µM in test [3]; 0.543 µM in test [4]; 0.243 µM in test [5]; 0.155 µM in test [6]. In addition, the GI50 is 2.15 µM in [7], 0.372 µM in test [8], 0.505 µM in [9] and 0.808 µM in test [10]. Further, the TGI is 0.749 µM in [1]; 12.4 µM in test [2]; 29.6 µM in test [3]; 22.8 µM in [4]; over 100 µM in [5]; 0.315 µM in test [6]. The TGI worked out at 22.8 µM in test [7], 3.1 µM in test [8], 16.6 µM in test [9] and 17.4 µM in test [10].

Turning to `COc1ccc(-c2c3c(N)nc(-c4ccncc4)nc3nc3c2c(C)nn3-c2ccccc2)cc1`, the GI50 is over 100 µM in test [1]; 16.5 µM in [2]; 3.57 µM in test [3]; 59.3 µM in [4]; 3.13 µM in [5]; 5.29 µM in test [6]. In addition, the GI50 is 3.41 µM in test [7], over 100 µM in [8], 24.7 µM in test [9] and 4.87 µM in test [10]. In addition, the TGI in test [1] was over 100 µM; in test [2] it was over 100 µM; in test [3], 16 µM; in test [4], over 100 µM; in test [5], over 100 µM; in test [6], over 100 µM. The TGI in test [7] is 30.8 µM; in test [8], over 100 µM; in test [9], over 100 µM; in test [10], 51.9 µM.

`COc1ccc(OC)c(/C=C2\SC(=S)NC2=O)c1`: the GI50 was 58 µM in test [1]; 20.7 µM in test [2]; 42.1 µM in test [3]; 31.2 µM in test [4]; 42.5 µM in test [5]; 39 µM in test [6]. In addition, the GI50 was 62.9 µM in test [7], 36.7 µM in test [8], 42.8 µM in test [9] and 17.7 µM in test [10]. Further, the TGI is over 100 µM in test [1]; 55.5 µM in test [2]; over 100 µM in test [3]; over 100 µM in [4]; over 100 µM in test [5]; over 100 µM in test [6]. The TGI was over 100 µM in test [7], over 100 µM in test [8], over 100 µM in test [9] and 53.4 µM in [10].
